What was measured:
Assay type in all cases: biochemical
[1] = tested on: Amy3=Stainzyme Plus L (12L); experiment: amylase storage stability in liquid formulation (pNP release from Ethyliden-blocked-pNPG7); conditions: base formulation II., 1.5 wt % component (a), storage at 37° C.
How it was run: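 Liquid formulations with amylase (as active protein) stored at 37 °C and sampled at intervals. Activity measured as pNP release (405 nm) from ethylidene-blocked pNPG7 with excess α-glucosidase, Termamyl standard; expressed relative to reference formulation at time 0.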

[2] = target: T1, Savinase Ultra 16.0L (Lederbergia lenta, UniProt P29600); experiment: protease storage stability in liquid formulation (Suc-AAPF-pNA substrate); conditions: storage at 37° C.
T1 construct: purchased Sigma-Aldrich
T1 sequence (P29600 1-269): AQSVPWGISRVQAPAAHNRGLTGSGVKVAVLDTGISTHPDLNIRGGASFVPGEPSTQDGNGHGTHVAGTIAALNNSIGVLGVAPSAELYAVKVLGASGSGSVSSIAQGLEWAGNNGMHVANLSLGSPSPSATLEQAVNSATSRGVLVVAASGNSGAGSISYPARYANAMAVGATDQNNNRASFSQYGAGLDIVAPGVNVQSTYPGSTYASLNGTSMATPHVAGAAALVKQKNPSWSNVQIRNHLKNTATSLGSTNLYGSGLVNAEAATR
How it was run: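 Savinase in liquid base formulations containing test salt, comparative compound or diethylene glycol; amounts given as active protein. Residual activity at set storage times measured with Suc-AAPF-pNA via pNA release at OD405, 20 °C. Activity expressed relative to reference formulation at time 0.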

[3] = tested on: Amylase; experiment: amylase storage stability in liquid laundry formulation (pNP release from Ethyliden-blocked-pNPG7); design: key: % of activity in reference formulation at time 0; conditions: laundry base formulation VII. (2.0 EDTA), 2.5 wt % component (a), storage at 37° C.
How it was run: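 Amylase stored in liquid laundry base formulations at 37° C, activity sampled over time. Activity measured as pNP release (A405) from ethylidene-blocked pNPG7 with excess α-glucosidase; values expressed relative to the reference formulation at time 0.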

Diethylcitrate [A.7] was tested, and the “amylase activity, referring to reference formulation at time 0” value (from here on “amylase activity, referring”) ([1]; 3 d) was 94, the “amylase activity, referring” value ([1]; 7 d) was 86 and the “amylase activity, referring” value ([1]; 14 d) was 82. The “amylase activity, referring” value ([1]; 21 d) was 72, the “amylase activity, referring” value ([1]; 28 d) was 64 and the “amylase activity, referring” value ([1]; 42 d) was 53. The “amylase activity, referring” value ([1]; T0) was 99, the “protease activity, referring to reference formulation at time 0” value (from here on “protease activity, referring”) ([2]; base formulation I., 1.5 wt % component (a), 3 d) was 94 and the “protease activity, referring” value ([2]; base formulation I., 1.5 wt % component (a), 7 d) was 91. The “protease activity, referring” value ([2]; base formulation I., 1.5 wt % component (a), 14 d) was 85, the “protease activity, referring” value ([2]; base formulation I., 1.5 wt % component (a), 21 d) was 81 and the “protease activity, referring” value ([2]; base formulation I., 1.5 wt % component (a), 28 d) was 76. For the same substance, the “protease activity, referring” value ([2]; base formulation I., 1.5 wt % component (a), 42 d) was 63, the “protease activity, referring” value ([2]; base formulation I., 1.5 wt % component (a), T0) was 100 and the “protease activity, referring” value ([2]; base formulation II., 1.5 wt % component (a), 3 d) was 98. For the same substance, the “protease activity, referring” value ([2]; base formulation II., 1.5 wt % component (a), 7 d) was 93, the “protease activity, referring” value ([2]; base formulation II., 1.5 wt % component (a), 14 d) was 88 and the “protease activity, referring” value ([2]; base formulation II., 1.5 wt % component (a), 21 d) was 85. The “protease activity, referring” value ([2]; base formulation II., 1.5 wt % component (a), 28 d) was 80, the “protease activity, referring” value ([2]; base formulation II., 1.5 wt % component (a), 42 d) was 71 and the “protease activity, referring” value ([2]; base formulation II., 1.5 wt % component (a), T0) was 100. For the same substance, the “protease activity, referring” value ([2]; base formulation III., 1.5 wt % component (a), 3 d) was 97, the “protease activity, referring” value ([2]; base formulation III., 1.5 wt % component (a), 7 d) was 95 and the “protease activity, referring” value ([2]; base formulation III., 1.5 wt % component (a), 14 d) was 92. For the same substance, the “protease activity, referring” value ([2]; base formulation III., 1.5 wt % component (a), 21 d) was 87, the “protease activity, referring” value ([2]; base formulation III., 1.5 wt % component (a), 28 d) was 74 and the “protease activity, referring” value ([2]; base formulation III., 1.5 wt % component (a), 42 d) was 64. The “protease activity, referring” value ([2]; base formulation III., 1.5 wt % component (a), T0) was 100, the “protease activity, referring” value ([2]; base formulation IV., 2.0 wt % component (a), 3 d) was 96 and the “protease activity, referring” value ([2]; base formulation IV., 2.0 wt % component (a), 7 d) was 88. The “protease activity, referring” value ([2]; base formulation IV., 2.0 wt % component (a), 14 d) was 79, the “protease activity, referring” value ([2]; base formulation IV., 2.0 wt % component (a), 21 d) was 74 and the “protease activity, referring” value ([2]; base formulation IV., 2.0 wt % component (a), 28 d) was 68. The “protease activity, referring” value ([2]; base formulation IV., 2.0 wt % component (a), 42 d) was 62, the “protease activity, referring” value ([2]; base formulation IV., 2.0 wt % component (a), T0) was 98 and the “protease activity, referring” value ([2]; base formulation V., 2.0 wt % component (a), 3 d) was 93. The “protease activity, referring” value ([2]; base formulation V., 2.0 wt % component (a), 7 d) was 88, the “protease activity, referring” value ([2]; base formulation V., 2.0 wt % component (a), 14 d) was 79 and the “protease activity, referring” value ([2]; base formulation V., 2.0 wt % component (a), 21 d) was 72. For the same substance, the “protease activity, referring” value ([2]; base formulation V., 2.0 wt % component (a), 28 d) was 66, the “protease activity, referring” value ([2]; base formulation V., 2.0 wt % component (a), 42 d) was 54 and the “protease activity, referring” value ([2]; base formulation V., 2.0 wt % component (a), T0) was 97. For the same substance, the “amylase activity, referring” value ([3]; 3 d) was 90, the “amylase activity, referring” value ([3]; 7 d) was 82 and the “amylase activity, referring” value ([3]; 14 d) was 69. The “amylase activity, referring” value ([3]; 21 d) was 62, the “amylase activity, referring” value ([3]; 28 d) was 56 and the “amylase activity, referring” value ([3]; T0) was 99.
